Like-named read-outs stand apart in the source and are kept apart here.
System: LPS-induced IL-6 release level from THP-1 cells
Experiment: Test of IL-6 release from THP-1 cells (LPS-induced, IL-6 in supernatant detected by CBA)
Type: cell-based
Conditions: Homo sapiens, read-out: Inhibition rate @ 10 uM
Method: Test of IL-6 Release from THP-1 Cells
The inhibitory effect of the compound on LPS-induced IL-6 release level from THP-1 cells was evaluated by measuring the level of IL-6 in the cell culture supernatant.
4 ul was taken from each above solution and added to lml of culture solution to make 120 uM, 40 uM, 12 uM, 4 uM. 50 ul per well was taken and added to wells with cells to give final concentrations of 30 uM, 10 uM, 3 uM, and 1 uM, respectively. Dexamethasone was added as a positive drug into an individual cell well with a final concentration of 100 nM. • c) Cell stimulation
The LPS 1 mg/ml solution was diluted to 800 ng/ml with the culture solution and added to the cell culture wells at 50 ul/well. • d) Cell incubation and detection
The cell culture plate was placed in a 37° C. incubator, and the supernatant was collected after culturing for 24 hours. The level of IL-6 in the supernatant was detected by CBA.

[1] = inflammatory factor IL-6 detected by CBA, compound 10 uM, LPS-stimulated THP-1 cells, supernatant after 24 hours

C=C1CCC2[C@]3(C)CO[C@@H](C4CCCC4)O[C@@H]3CC[C@@]2(C)[C@@H]1CCN1CCCC[C@@H]1C(=O)O (stereo partly drawn) [Compound 451, (2R)-1-(2-((3R,4aR,6aS,7R,10bR)-3-cyclopentyl-6a,10b-dimethyl-8-methylene-decahydro-1H-naphtho[2,1-d][1,3]dioxin-7-yl)ethyl)piperidine-2-carboxylic acid]
inhibition at 10 µM [1]: 30 to 60%

C=C1CCC2[C@]3(C)CO[C@@H](c4ccc(F)c(F)c4)O[C@@H]3CC[C@@]2(C)[C@@H]1CCN1C(=O)CNC1=O (stereo partly drawn) [Compound 230, 3-(2-((3R,4aR,6aS,7R,10bR)-3-(3,4-difluorophenyl)-6a,10b-dimethyl-8-methylenedecahydro-1H-naphtho[2,1-d][1,3]dioxin-7-yl)ethyl)tetrahydroimidazole-2,4-dione]
inhibition at 10 µM [1]: > 60%

C=C1CCC2[C@]3(C)CO[C@@H](C4CCCC4)O[C@@H]3CC[C@@]2(C)[C@@H]1CCN1CCN(C)CC1 (stereo partly drawn) [Compound 433, 1-(2-((3R,4aR,6aS,7R,10bR)-3-cyclopentyl-6a,10b-dimethyl-8-methylene-decahydro-1H-naphtho[2,1-d][1,3]dioxin-7-yl)ethyl)-4-methylpiperazine]
inhibition at 10 µM [1]: > 60%

C=C1CCC2[C@]3(C)CO[C@@H](C4CCCC4)O[C@@H]3CC[C@@]2(C)[C@@H]1CCOc1ccncc1C#N (stereo partly drawn) [Compound 349, 4-(2-((3R,4aR,6aS,7R,10bR)-3-cyclopentyl-6a,10b-dimethyl-8-dihydromethylenedecahydro-1H-naphtho[2,1-d][1,3]dioxin-7-yl)ethoxy)cyanopyridine]
inhibition at 10 µM [1]: > 60%

C=C1CCC2[C@]3(C)CO[C@@H](C4CCCC4)O[C@@H]3CC[C@@]2(C)[C@@H]1CCOCCCN(C)C (stereo partly drawn) [Compound 281, 3-(2-((3R,4aR,6aS,7R,10bR)-3-cyclopentyl-6a,10b-dimethyl-8-dihydromethylenedecahydro-1H-naphtho[2,1-d][1,3]dioxin-7-yl)ethoxy)-N,N-dimethylpropan-1-amine]
inhibition at 10 µM [1]: 30 to 60%

C=C1CCC2[C@]3(C)CO[C@@H](C4CCCC4)O[C@@H]3CC[C@@]2(C)[C@@H]1CCOc1ncccc1C(=O)O (stereo partly drawn) [Compound 436, 2-(2-((3R,4aR,6aS,7R,10bR)-3-cyclopentyl-6a,10b-dimethyl-8-dihydromethylenedecahydro-1H-naphtho[2,1-d][1,3]dioxin-7-yl)ethoxy)nicotinic acid]
inhibition at 10 µM [1]: < 30%

C=C1CCC2[C@]3(C)CO[C@@H](C4CCCC4)O[C@@H]3CC[C@@]2(C)[C@@H]1CCN1CCCC1C(=O)O (stereo partly drawn) [Compound 163, 1-(2-((3R,4aR,6aS,7R,10bR)-3-cyclopentyl-6a,10b-dimethyl-8-methylenedecahydro-1H-naphtho[2,1-d][1,3]dioxin-7-yl)ethyl)pyrrolidine-2-carboxylic acid]
inhibition at 10 µM [1]: > 60%

C=C1CCC2[C@]3(C)CO[C@@H](C4CCCC4)O[C@@H]3CC[C@@]2(C)[C@@H]1CCOC1CCN(CC(F)(F)F)CC1 (stereo partly drawn) [Compound 483, 4-(2-((3R,4aR,6aS,7R,10bR)-3-cyclopentyl-6a,10b-dimethyl-8-dihydromethylenedecahydro-1H-naphtho[2,1-d][1,3]dioxin-7-yl)ethoxy)-1-(2,2,2,-trifluoroethyl)piperidine]
inhibition at 10 µM [1]: 30 to 60%

C=C1CCC2[C@]3(C)CO[C@@H](C4CCCC4)O[C@@H]3CC[C@@]2(C)[C@@H]1CCOc1cnc(C(=O)O)nc1 (stereo partly drawn) [Compound 454, 5-(2-((3R,4aR,6aS,7R,10bR)-3-cyclopentyl-6a,10b-dimethyl-8-dihydromethylenedecahydro-1H-naphtho[2,1-d][1,3]dioxin-7-yl)ethoxy)pyrimidine-2-carboxylic acid]
inhibition at 10 µM [1]: 30 to 60%

C=C1CCC2[C@]3(C)CO[C@@H](C4CCCC4)O[C@@H]3CC[C@@]2(C)[C@@H]1CCOc1cc(C#N)ccc1C(=O)O (stereo partly drawn) [Compound 445, 4-cyano-2-(2-((3R,4aR,6aS,7R,10bR)-3-cyclopentyl-6a,10b-dimethyl-8-dihydromethylenedecahydro-1H-naphtho[2,1-d][1,3]dioxin-7-yl)ethoxy)benzoic acid]
inhibition at 10 µM [1]: < 30%

C=C1CCC2[C@]3(C)COC(C)(C)O[C@@H]3CC[C@@]2(C)[C@@H]1CCOc1ccncc1 (stereo partly drawn) [Compound 402, 4-(2-((4aR,6aS,7R,10bR)-3,3,6a, 10b-tetramethyl-8-dihydromethylenedecahydro-1H-naphtho[2,1-d][1,3]dioxin-7-yl)ethoxy)pyridine]
inhibition at 10 µM [1]: > 60%

C=C1CCC2[C@]3(C)CO[C@@H](C4CCCCC4)O[C@@H]3CC[C@@]2(C)[C@@H]1CCOc1ccncc1 (stereo partly drawn) [Compound 429, 4-(2-((3R,4aR,6aS,7R,10bR)-3-cyclohexyl-6a,10b-dimethyl-8-dihydromethylenedecahydro-1H-naphtho[2,1-d][1,3]dioxin-7-yl)ethoxy)pyridine]
inhibition at 10 µM [1]: < 30%

C=C1CCC2[C@]3(C)CO[C@@H](C4CCCC4)O[C@@H]3CC[C@@]2(C)[C@@H]1CCNc1cnoc1 (stereo partly drawn) [Compound 207, N-(2-((3R,4aR,6aS,7R,10bR)-3-cyclopentyl-6a,10b-dimethyl-8-decahydromethylene-1H-naphtho[2,1-d][1,3]dioxin-7-yl)ethyl)isoxazol-4-amine]
inhibition at 10 µM [1]: 30 to 60%

C=C1CCC2[C@]3(C)COC4(CCCC4)O[C@@H]3CC[C@@]2(C)[C@@H]1CCOc1ccncc1 (stereo partly drawn) [Compound 416]
inhibition at 10 µM [1]: > 60%

C=C1CCC2[C@]3(C)CO[C@@H](C4CCCC4)O[C@@H]3CC[C@@]2(C)[C@@H]1CCOC1CN(C(C)C)C1 (stereo partly drawn) [Compound 313, 3-(2-((3R,4aR,6aS,7R,10bR)-3-cyclopentyl-6a,10b-dimethyl-8-dihydromethylenedecahydro-1H-naphtho[2,1-d][1,3]dioxin-7-yl)ethoxy)-1-isopropyl azetidine]
inhibition at 10 µM (THP-1, 24 h): 30 to 60%

C=C1CCC2[C@]3(C)CO[C@@H](C4CCCC4)O[C@@H]3CC[C@@]2(C)[C@@H]1CCOc1ccnc(OC)c1 (stereo partly drawn) [Compound 420, 4-(2-((3R,4aR,6aS,7R,10bR)-3-cyclopentyl-6a,10b-dimethyl-8-dihydromethylenedecahydro-1H-naphtho[2,1-d][1,3]dioxin-7-yl)ethoxy)-2-methoxypyridine]
inhibition at 10 µM [1]: < 30%

C=C1CCC2[C@]3(C)CO[C@@H](C4CCCC4)O[C@@H]3CC[C@@]2(C)[C@@H]1CCOc1cccc(F)c1C(=O)O (stereo partly drawn) [Compound 452, 2-(2-((3R,4aR,6aS,7R,10bR)-3-cyclopentyl-6a,10b-dimethyl-8-dihydromethylenedecahydro-1H-naphtho[2,1-d][1,3]dioxin-7-yl)ethoxy)-6-fluoro-benzoic acid]
inhibition at 10 µM [1]: 30 to 60%

C=C1CCC2[C@]3(C)CO[C@@H](C4CCCC4)O[C@@H]3CC[C@@]2(C)[C@@H]1CCOc1ccncc1N (stereo partly drawn) [Compound 339]
inhibition at 10 µM [1]: < 30%

C=C1CCC2[C@]3(C)CO[C@@H](C4CCCC4)O[C@@H]3CC[C@@]2(C)[C@@H]1CCn1cc(C(=O)O)cn1 (stereo partly drawn) [Compound 458, 1-(2-((3R,4aR,6aS,7R,10bR)-3-cyclopentyl-6a,10b-dimethyl-8-dihydromethylene-1H-naphtho[2,1-d][1,3]dioxin-7-yl)ethyl)-1H-pyrazole-4-carboxylic acid]
inhibition at 10 µM [1]: 30 to 60%

C=C1CCC2[C@]3(C)CO[C@@H](C4CCCC4)O[C@@H]3CC[C@@]2(C)[C@@H]1CCOc1cccnc1 (stereo partly drawn) [Compound 310, 3-(2-((3R,4aR,6aS,7R,10bR)-3-cyclopentyl-6a,10b-dimethyl-8-dihydromethylenedecahydro-1H-naphtho[2,1-d][1,3]dioxin-7-yl)ethoxy)-pyridine]
inhibition at 10 µM [1]: > 60%

C=C1CCC2[C@]3(C)CO[C@@H](C4CCCC4)O[C@@H]3CC[C@@]2(C)[C@@H]1CCN1CCC[C@H]1C(=O)O (stereo partly drawn) [Compound 435]
inhibition at 10 µM [1]: < 30%

Source: patent US10717720B2, “Modified compound of andrographolide” (Heilongjiang Zhenbaodao Pharmaceutical Co., Ltd., priority 2015, dated 2020)
